Reference: publication PMC12195777, “Improved Bioavailability of Stilbenes from Cajanus cajan (L.) Millsp. Leaves Achieved by Hydroxypropyl-β-Cyclodextrin Inclusion: Preparation, Characterization and Pharmacokinetic Assessment” (Molecules, 2025)

Assays:
[1] = Tissue distribution study in rats after oral administration; format: in vivo; settings: oral CCMLE or inclusion complex, heart, liver, spleen, lungs, kidneys, brain
Protocol: The tissue distribution study followed the same experimental grouping and dosing protocols described in Section 3.12. Thirty minutes after dosing, the rats were euthanized and their tissues (including their heart, liver, spleen, lungs, kidneys and brain) were immediately collected. Each tissue was rinsed with a 0.9% NaCl solution, gently dried with filter paper, weighed and stored at −80 °C until analysis.
For sample preparation, 0.2 g of each tissue was homogenized in 0.5 mL of a 0.9% NaCl solution using a high-throughput tissue grinder (Jingxin, Shanghai, China). Next, 300 μL of the tissue homogenate was mixed with 50 μL of a CHL solution and 850 μL of methanol, vortexed for 3 min and centrifuged at 13,000 rpm for 10 min at 4 °C. Then 10 μL of the supernatant was injected into the UPLC-QqQ-MS/MS system for analysis.

[2] = In vivo pharmacokinetic study in rats after oral administration (UPLC-QqQ-MS/MS of plasma); set-up: species or system SD rats; settings: for AUC(0-inf) / AUC(0-t) / Cmax / Tmax / half-life: male, SD, rat, plasma, n = 6; for relative bioavailability / time at which peak plasma concentration (Cmax) was reached: oral; for relative bioavailability: from the inclusion complex, using CCMLE as a reference; for time at which peak plasma concentration (Cmax) was reached: post-administration (Figure 6)
Protocol: Healthy male SD rats weighing 200 ± 20 g were housed in a specific pathogen-free (SPF) facility under controlled conditions (24 ± 1 °C, 50 ± 10% relative humidity) with a 12 h light/dark cycle. The animals were free to access purified water and a standard laboratory diet for a 1-week acclimatization period. After acclimatization, the rats were randomly divided into three groups (n = 6 per group): the control group (con), CCMLE group and stilbene/HP-β-CD inclusion complex group. The CCMLE group received an oral dose of 232 mg/kg CCMLE, while the stilbene/HP-β-CD inclusion complex group received 2.1 g/kg of the inclusion complex by oral gavage, with both containing the same amount of stilbenes. All animal experiments were performed in accordance with the National Institutes of Health Guide for the Care and Use of Laboratory Animals (NIH Publication No. 85-23, revised in 1996). The study protocol was approved by the Animal Care and Use Committee of Zhejiang University of Technology (approval number MGS20231227194).
Blood samples (approximately 300 μL) were collected via the retro-orbital venous plexus before dosing and at the following post-dose times of 5 min, 15 min, 30 min, 1 h, 1.5 h, 2 h, 4 h, 6 h, 8 h, 12 h and 24 h. Each sample was placed in an EDTA anticoagulation tube to prevent coagulation. The tubes were then centrifuged at 3500 rpm for 10 min. The upper layer of supernatant (plasma) was carefully collected and stored at −80 °C until further analysis.
The plasma samples stored at −80 °C were thawed at room temperature prior to processing. For each analysis, 100 μL of the plasma sample was accurately transferred into a centrifuge tube, followed by the addition of 40 μL of a chloramphenicol (CHL) solution (1 mg/mL) used as an internal standard (IS) and 260 μL methanol. The mixture was vortexed for 3 min to ensure thorough homogenisation and then centrifuged at 13,000 rpm for 10 min at 4 °C to precipitate proteins and other insoluble components. For analysis, 10 μL of the supernatant was injected into a ultra-high-performance liquid chromatography–triple-quadrupole tandem mass spectrometry (UPLC-QqQ-MS/MS) system.
The bioavailabilities of three stilbenes (LLC, CSA and MPA) in CCMLE and the stilbene/HP-β-CD inclusion complex were analyzed using a Waters Xevo TQ-S micro-mass spectrometry system (Waters, Milford, MA, USA) coupled to a Waters H-Class UPLC system. Chromatographic separation was performed on a Waters H-Class UPLC system equipped with a Welch Ultimate® UHPLC LP-C18 column (Waters, Milford, MA, USA, 2.1 × 50 mm, 1.8 μm) at 30 °C. The injection volume was 10 μL. The mobile phase consisted of ultrapure water (A) and acetonitrile (B) with a flow rate of 0.3 mL/min and an elution gradient programme as follows: 0–0.2 min, 90% A; 0.2–1.5 min, 90–5% A; 1.5–3.5 min, 5% A; and 3.5–5 min, 5–90% A.
Mass spectrometric analysis was performed on a Waters Xevo TQ-S micro system using electrospray ionization in the negative mode (ESI^−). The capillary voltage was 2.71 kV, and the ion source temperature was 150 °C. Nitrogen was used as the desolventizing gas and the cone pore gas, and argon was used as the collision gas. Data acquisition was performed in the multiple-reaction-monitoring (MRM) mode for all analytes.
The relative bioavailability of CSA, LLC and MPA in the stilbene/HP-β-CD inclusion complex was calculated using Equation (8), with CCMLE used as a reference:(8) Frel=AUCstilbenes/HP−β−CD/AUCCCMLE·DCCMLE/Dstilbenes/HP−β−CD·100% where AUCstilbenes/HP-β-CD and AUCCCMLE represent the areas under the blood concentration–time curve, and Dstilbenes/HP-β-CD and DCCMLE represent the orally administered dose (mg/kg).
DAS 2.0 software was used to calculate the pharmacokinetic parameters, including the area under the plasma concentration–time curve (AUC), maximum plasma concentration (Cmax), time to reach Cmax (tmax) and elimination half-life (t1/2), using a non-compartmental model. […]

[3] = quoted without reference; cited from earlier work
[4] = oral stilbene/HP-β-CD inclusion complex 2.1 g/kg

AUC(0-inf) ([2]; oral CCMLE 232 mg/kg) [ng·h/mL]	AUC(0-t) ([2]; oral CCMLE 232 mg/kg) [ng·h/mL]	Cmax ([2]; oral CCMLE 232 mg/kg) [ng/mL]	Tmax ([2]; oral CCMLE 232 mg/kg) [h]	half-life ([2]; oral CCMLE 232 mg/kg) [h]	AUC(0-inf) [2, 4] [ng·h/mL]	AUC(0-t) [2, 4] [ng·h/mL]	Cmax [2, 4] [ng/mL]	Tmax [2, 4] [h]	half-life [2, 4] [h]	relative bioavailability [2] [%]	time at which peak plasma concentration (Cmax) was reached [2] [min]	SMILES	tissue-specific accumulation [1]	pKa of phenolic hydroxyl groups [3]
170 ± 66	120 ± 41	48	0.3 ± 0.1	11 ± 5.6	470 ± 160	240 ± 82	140 ± 60	0.3 ± 0.1	13 ± 9.9	198	15	COc1cc(/C=C/c2ccccc2)c(C(=O)O)c(O)c1CC=C(C)C [CSA, cajaninstilbene acid]	predominately concentrated in the liver	–
10 ± 9.3	5.8 ± 2.9	0.7 ± 0.5	0.3 ± 0.1	14 ± 8.7	12 ± 6.7	10 ± 6.7	4.5 ± 2	0.5	6	177	–	COc1cc(O)cc(/C=C/c2ccccc2)c1CC=C(C)C [LLC, longistyle C]	higher concentrations in the heart and lungs	–
580 ± 170	560 ± 160	230 ± 60	0.4 ± 0.3	5.5 ± 1.7	803 ± 140	740 ± 100	440 ± 130	0.3 ± 0.1	9 ± 4.1	131	15	COc1cc(O)c(C(=O)O)c(/C=C/c2ccccc2)c1 [MPA, 4-O-methylpinosylvic acid]	relatively higher levels in the liver, lungs and kidneys	–
–	–	–	–	–	–	–	–	–	–	–	–	Oc1ccc(/C=C/c2cc(O)cc(O)c2)cc1 [resveratrol]	–	9.5–10
